In patent EP1149836B1, “Polynalbuphine derivatives” (Hu, Oliver Yoa-Pu, priority 2000, dated 2001):
Where “and” joins values, the source holds several entries; their conditions need not be identical. Equal values may be shown once. Where a name gives a salt, the structure may show the parent alone.

Columns and labels:
[1] = in vivo; cited from earlier work
[2] = cold ethanol tail flick test, dose response and MonoNalbuphine derivative study; conditions: rats; for maximal analgesic effect found at (dose): intramuscularly injection, Figure 4
Method: Each group consisted of 6 rats, and each rat was injected once intramuscularly on the rear leg.
The dose for each rat was 25 micromole per kg, intramuscularly.
The time to stop the experiment was set at 40 seconds to prevent the tail from cold sore. No cold sores were found within 40 sec. Five minutes after the drug was given to the rat, the flick test was performed every 10 minutes or more.

[3] = pharmacokinetic study of long acting preparation in Beagle dog; set-up: species or system Beagle dogs; conditions: in vivo, comparison with sebacoyl dinalbuphine ester, read-out: half life for excretion (converted)
[4] = analgesic effect after intramuscular injection to rats, polynalbuphine derivative study; type: in vivo, Sprague Dawley rats
Method: In the experiment, a circulating cold ethanol bath with a temperature maintained at -20°C was set up. After dosing, the rat tail(1/3 from the tip) was immersed in the bath. The latency for the rat to flick its tail from the bath was measured to be the analgesic threshold. The effect of various opium alkaloid preparations can be determined with this test.
The analgesic effect can be calculated as follows: analgesic effect (%) = (flicking time after dosing - flicking time before dosing ) / (test terminated time - flicking time before dosing ) X 100% [formula]
(§1) Six male Sprague Dawley rats (175 to 225 g), and six male guinea pig(200 to 250 g) were used.

[5] = analgesic effect after intramuscular injection to guinea pigs; type: in vivo, guinea pig; conditions: 500 µM/kg and 250 µM/kg, Figure 7
From the text: as §1

[6] = in vitro release of Nalbuphine from vehicles (dialysis bag, UV); type: physicochemical; conditions: Fig. 2, p<0.05
[7] = after continuous use for 6 months; cited from earlier work
[8] = pharmacokinetic study of long acting preparation in Beagle dog; type: in vivo, Beagle dogs
Method: Six Beagle dogs were used. Five Beagle dogs were intramuscularly injected with 30 mg/kg long acting sebacoyl dinalbuphine ester oily parenteral administration respectively, and another one was injected with 100 mg/kg long acting sebacoyl dinalbuphine ester oily parenteral administration. Blood samples were collected through the veins in front limbs of the dogs at 1, 2, 6, 24, 30, 48, 54, 72, 78, 96, 102, 120, 168, 192 hours. […] The relationship between time and concentration was analyzed by PCNONLIN computer program. Two-compartment model and pharmacokinetic parameters were calculated to depict absorption, distribution, metabolism, and excretion of drugs in the dogs.

[9] = half-life of dinalbuphine sebacoyl ester in human blood, HPLC; type: in vitro ADME
Method: • (a) Dinalbuphine sebacoyl ester was dissolved in acetonitrile, the concentration was 10 mg/ml. • (b) 250 ml of whole blood was collected from human administered with the thus formed dinalbuphine sebacoyl ester soft drug, and was added with anticoagulant.
(§2) All blood collections were analyzed by HPLC.

[10] = half-life of dinalbuphine sebacoyl ester in rabbit blood, HPLC; type: in vitro ADME
Method: • (a) Dinalbuphine ester sebacoyl ester was dissolved in acetonitrile, the concentration was 5.2 mg/ml. • (b) 150 ml of whole blood was collected from rabbit administered with the thus formed dinalbuphine sebacoyl ester soft drug, and was added with anticoagulant.
as §2

[11] = half-life of dinalbuphine sebacoyl ester in rat blood, HPLC; type: in vitro ADME
Method: • (a) Dinalbuphine sebacoyl ester(SDN) was dissolved in acetonitrile, the concentration was 7.75 mg/ml. • (b) 250 ml of whole blood was collected from rat administered with the thus formed dinalbuphine sebacoyl ester soft drug, and was added with anticoagulant.
as §2

[12] = half-life of dinalbuphine sebacoyl ester in dog blood, HPLC; type: in vitro ADME
Method: • (a) Dinalbuphine sebacoyl ester was dissolved in acetonitrile, the concentration was 12.5 mg/ml. • (b)200 ml of whole blood was collected from dog administered with the thus formed dinalbuphine sebacoyl ester soft drug, and was added with anticoagulant.
as §2

[13] = clinical / estimated analgesic duration in humans; type: in vivo; conditions: 125 µM/ kg administered to a human body
Method: The analgesic effect was extended to 4-5 days, when the dose administered was below 125 µM/kg. […] The same level of analgesic effect for intramuscular injection to rats was required at 15.625 µM/kg(6.165 mg/kg).
Therefore, the analgesic effect is estimated 4-5 days when 125 µM/ kg of sebacoyl dinalbuphine ester is administered to a human body.
The amount of the aforesaid injection was about 10 ml. However, the analgesic effect could not be maintained 4 to 5 days even upon administration of 88 ml of Malbuphine hydrochloride because of metabolism. Besides, such parenteral volume was not ideal for a single dose. This invention made an improvement. By diluting a single dose of sebacoyl dinalbuphine in 7.15 ml sesame oil form, parenteral administration could maintain the analgesic effect 4 to 5 days.

Question: For Oc1ccc2c(c1)[C@@]13CCCC[C@@]1(O)[C@@H](C2)N(CC1CCC1)CC3 [Butorphanol], which “dose needed to elicit the same analgesic effect” value [1] is on record?
Answer: Its value is 2 mg.

Question: For CN1CC[C@]23c4c5ccc(O)c4O[C@H]2[C@@H](O)C=C[C@H]3[C@H]1C5.Cl [Morphine hydrochloride], which “maximal analgesic effect found at (dose)” value [2] is on record?
Answer: The value was 10 mg/kg.

Question: For CN1CC[C@]23c4c5ccc(O)c4O[C@H]2[C@@H](O)C=C[C@H]3[C@H]1C5 [Morphine], which “dose needed to elicit the same analgesic effect” value [1] is on record?
Answer: Its value is 10 mg.

Question: Which “maximal analgesic effect found at (dose)” value [2] does the source give for Oc1ccc2c3c1O[C@H]1[C@@H](O)CC[C@@]4(O)[C@@H](C2)N(CC2CCC2)CC[C@]314 [Nalbuphine hydrochloride] here?
Answer: Its value is 100 mg/kg.

Question: And the half-life [3]?
Answer: The half-life was ~60 min.

Question: What about the analgesic effects ([4]; intramuscular injection, 15.625, 62.5, 250 µM/kg, Figure 6) of the same molecule?
Answer: Its analgesic effects is “significant analgesic effects”.

Question: What about the analgesic effects [5] of the same molecule?
Answer: The analgesic effects was “significant analgesic effects”.

Question: For Oc1ccc2c3c1O[C@H]1[C@@H](O)CC[C@@]4(O)[C@@H](C2)N(CC2CCC2)CC[C@]314 [Nalbuphine], which analgesic duration ([2]; 25 micromole per kg intramuscularly, in sesame oil, compared with each preparation of MonoNalbuphine derivatives, Fig. 5) is on record?
Answer: Its analgesic duration is “significantly shorter”.

Question: What about the “amount of released Nalbuphine free base” value ([6]; between 17 and 28 hours) of the same molecule?
Answer: The value was “less in the preparation with sesame oil than with peanut oil and the phosphate buffer”.

Question: And the release rate ([6]; sesame oil as the vehicle vs the other three preparations, between 1 and 11 hours)?
Answer: The release rate was “slowest release rate”.

Question: What about the “addiction, synergistic effect and respiratory inhibition” value [7] of the same molecule?
Answer: The value was “no significant addiction and synergistic effect was found, but only slight respiratory inhibition”.

Question: With O=C(CCCCCCCCC(=O)Oc1ccc2c3c1O[C@H]1[C@@H](O)CC[C@@]4(O)[C@@H](C2)N(CC2CCC2)CC[C@]314)Oc1ccc2c3c1O[C@H]1[C@@H](O)CC[C@@]4(O)[C@@H](C2)N(CC2CCC2)CC[C@]314 [sebacoyl dinalbuphine ester] as the molecule, how does the MRT ([8]; Beagle Dog 2, i.m., Dose 24.3 mg/kg) read?
Answer: The MRT was 78.8 H.

Question: And the MRT ([8]; Beagle Dog 2, i.m., Dose 81.0 mg/kg)?
Answer: The MRT was 127.2 H.

Question: And the MRT ([8]; Beagle dogs, 30 mg/kg i.m. oily injection, Mean of five dogs)?
Answer: Its MRT is 73.2 H.

Question: And the MRT ([8]; Beagle dogs, 30 mg/kg i.m. oily injection, individual dogs 1-5, listed as SDN, 30 mg/kg)?
Answer: The MRT was 84.3 H and 78.8 H and 61.1 H and 62.7 H and 79.1 H.

Question: What about the “kinetic across two doses” value ([8]; Beagle dogs, Table 6 vs Table 7) of the same molecule?
Answer: Its value is “linear kinetic”.

Question: And the “absorption in injection oil vehicle” value ([8]; Beagle dogs, i.m., Figures 10 and 11)?
Answer: The value was “zero order”.

Question: And the “converted time, which converts 90% dinalbuphine sebacoyl ester(SDN) into Nalbuphine” value ([9]; human)?
Answer: Its value is 30 min.

Question: What about the half-life ([9]; human blood test, read-out: half life) of the same molecule?
Answer: Its half-life is 9 min.

Question: And the half-life ([9]; human plasma, n=3, read-out: Elimination Half-life)?
Answer: The half-life was 9 ± 0.4 min.

Question: And the half-life ([9]; human whole blood, n=3, read-out: Elimination Half-life)?
Answer: Its half-life is 8.8 ± 0.4 min.

Question: What about the half-life ([9]; red blood cells, human red blood cell, n=3, read-out: Elimination Half-life) of the same molecule?
Answer: The half-life was 7.7 ± 0.4 min.

Question: What about the “converted time, which converts 90% dinalbuphine sebacoyl ester(SDN) into Nalbuphine” value ([10]; rabbit) of the same molecule?
Answer: Its value is 25 min.

Question: And the half-life ([10]; rabbit blood test, read-out: half life)?
Answer: The half-life was 7 min.

Question: What about the half-life ([10]; rabbit plasma, n=3, mean± S.E, read-out: Elimination Half-life) of the same molecule?
Answer: The half-life was 6.98 ± 0.03 min.

Question: And the half-life ([10]; rabbit whole blood, n=3, mean± S.E, read-out: Elimination Half-life)?
Answer: The half-life was 14.9 ± 1.3 min.

Question: And the half-life ([10]; red blood cells, rabbit red blood cell, n=3, mean± S.E, read-out: Elimination Half-life)?
Answer: The half-life was 26.2 ± 4.8 min.

Question: What about the “converted time, which converts 90% dinalbuphine sebacoyl ester(SDN) into Nalbuphine” value ([11]; rat) of the same molecule?
Answer: The value was 10 min.

Question: And the half-life ([11]; rat blood test, read-out: half life)?
Answer: The half-life was 2.8 min.

Question: What about the half-life ([11]; rat plasma, read-out: Elimination Half-life) of the same molecule?
Answer: The half-life was 2.8 min.

Question: What about the half-life ([11]; rat whole blood, n=3, mean± S.E, read-out: Elimination Half-life) of the same molecule?
Answer: Its half-life is 2.2 ± 0.5 min.

Question: And the half-life ([11]; red blood cells, rat red blood cell, n=3, mean± S.E, read-out: Elimination Half-life)?
Answer: Its half-life is 2.3 ± 0.6 min.

Question: And the “converted time, which converts 90% dinalbuphine sebacoyl ester(SDN) into Nalbuphine” value ([12]; dog)?
Answer: The value was 95 min.

Question: What about the half-life ([12]; dog blood test, read-out: half life) of the same molecule?
Answer: Its half-life is 27.8 min.

Question: What about the half-life ([12]; dog plasma, n=3, read-out: Elimination Half-life) of the same molecule?
Answer: The half-life was 27.8 ± 0.5 min.

Question: What about the half-life ([12]; dog whole blood, n=3, read-out: Elimination Half-life) of the same molecule?
Answer: Its half-life is 30.5 ± 0.8 min.

Question: What about the half-life ([12]; red blood cells, dog red blood cell, n=3, read-out: Elimination Half-life) of the same molecule?
Answer: Its half-life is 33.4 ± 1.4 min.

Question: What about the “50% analgesic effect was extended to” value ([4]; intramuscular injection of 125 µM/kg, Figure 9) of the same molecule?
Answer: Its value is 88 h.

Question: And the analgesic effects ([4]; intramuscular injection, 7.8125, 31.25, 125 µM/kg, Figure 8)?
Answer: Its analgesic effects is “proportional to the dose administered”.

Question: And the “analgesic effect relative to Nalbuphine hydrochloride” value ([4]; intramuscular, Figure 9)?
Answer: Its value is 8.8 times.

Question: What about the “analgesic effect was extended to” value ([4]; intramuscular, dose administered below 125 µM/kg) of the same molecule?
Answer: Its value is 4 to 5 days.

Question: What about the “analgesic effect estimated (duration)” value [13] of the same molecule?
Answer: Its value is 4 to 5 days.
